Test results from patent publication US20150160197A1, “System and Method for Analyzing Samples Labeled with 5, 10, 15, 20 Tetrakis (4-Carboxyphenyl) Porphine (TCPP)” (bioAffinity Technologies, Inc., priority 2009, published 2015).
“Also recorded” adds a separate entry of the source.

Legend:
neoplastic cells = details: cell sample incubated 6-24 hours with 200 μg/ml TCPP; cited from earlier work
[1] = tested on: cells of lung sputum sample; assay: Fluorescence spectral imaging (LCTF/CCD) of TCPP-labeled lung sputum cells on slides; assay type: cell-based, human; details: fixed sputum cells on slide, images separated by spectral emission (530 nm vs 660 nm layers)
Source text: According to one embodiment of the present invention, a biological specimen, for example a sputum sample is processed using a thin prep protocol onto a microscope slide. […] Minimizing corrosive effects to the plasma membrane is important as the TCPP is shown to localize on the plasma membrane of the cell surface. The cells are processed to separate the cells from the mucous and cell fragments. Each prepared slide contains a monolayer of the sputum cells. After preparing the slides, the labeling reagent TCPP is dissolved in concentrations between 0.05 ug/ml-4.0 ug/ml in an aqueous alcohol containing between 50% and 90% isopropanol alcohol solution. […]
To gather our data an image capture system having a detector capable of quantifying emission of photons from a TCPP labeled cell across light spectrum from about 350 nm to about 800 nm was employed according to one embodiment of the present invention. […]
Referring now to FIG. 1 is a cell labeled or stained with TCPP according to one embodiment of the present invention. […] The autofluorescence of the cells is detected in the green channel 560 +/−30nm and the fluorescence of the TCPP labeling compound on the cell is detected in the red channel 660 +/−30 nm. […] By tuning the LCTF to different frequencies during imaging, the system permits information to be gathered and analyzed over a broad spectrum. […]

SMILES: O=C(O)c1ccc(-c2c3nc(c(-c4ccc(C(=O)O)cc4)c4ccc([nH]4)c(-c4ccc(C(=O)O)cc4)c4nc(c(-c5ccc(C(=O)O)cc5)c5ccc2[nH]5)C=C4)C=C3)cc1 [TCPP, 5, 10, 15, 20 tetrakis (4-carboxyphenyl) porphine]
- location of TCPP in cells after incubation (neoplastic cells): entered cells and bound to the perinuclear membrane and mitochondria of neoplastic cells
- location of TCPP in cell structures [1]: emitted exclusively from the plasma membrane; also recorded: adheres only to surface features and does not migrate into internal cell structures
